{"source": "ChEMBL document CHEMBL4033767", "about": "“Structure-Guided Strategy for the Development of Potent Bivalent ERK Inhibitors” (ACS Med Chem Lett, 2017)", "key": {"[1]": {"biological_target": "T1, Mitogen-activated protein kinase 1 (Homo sapiens, UniProt P28482)", "T1 sequence (P28482 whole entry, the tested form may be a part)": "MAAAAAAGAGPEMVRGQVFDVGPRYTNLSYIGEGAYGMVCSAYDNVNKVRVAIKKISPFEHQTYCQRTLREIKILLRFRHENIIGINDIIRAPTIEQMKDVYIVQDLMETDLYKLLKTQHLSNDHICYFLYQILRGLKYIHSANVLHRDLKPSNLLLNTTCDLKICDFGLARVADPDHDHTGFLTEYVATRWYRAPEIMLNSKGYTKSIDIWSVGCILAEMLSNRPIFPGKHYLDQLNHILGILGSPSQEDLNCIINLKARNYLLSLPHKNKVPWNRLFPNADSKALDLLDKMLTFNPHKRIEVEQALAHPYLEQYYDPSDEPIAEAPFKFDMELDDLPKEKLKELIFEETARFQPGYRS", "experiment": "Binding affinity to non-phosphorylated full length N-terminal His6-tagged/SUMO-fused ERK2 (1 to 360 residues) (unknown origin) by isothermal titration method"}, "[2]": {"biological_target": "T1, Mitogen-activated protein kinase 1", "experiment": "Inhibition of phosphorylated ERK2 (unknown origin) using myelin basic protein as substrate after 2 hrs in presence of ATP by ADP-glo assay"}, "[3]": {"biological_target": "Mitogen-activated protein kinase 3 (Homo sapiens) (UniProt P27361)", "sequence (P27361 whole entry, the tested form may be a part)": "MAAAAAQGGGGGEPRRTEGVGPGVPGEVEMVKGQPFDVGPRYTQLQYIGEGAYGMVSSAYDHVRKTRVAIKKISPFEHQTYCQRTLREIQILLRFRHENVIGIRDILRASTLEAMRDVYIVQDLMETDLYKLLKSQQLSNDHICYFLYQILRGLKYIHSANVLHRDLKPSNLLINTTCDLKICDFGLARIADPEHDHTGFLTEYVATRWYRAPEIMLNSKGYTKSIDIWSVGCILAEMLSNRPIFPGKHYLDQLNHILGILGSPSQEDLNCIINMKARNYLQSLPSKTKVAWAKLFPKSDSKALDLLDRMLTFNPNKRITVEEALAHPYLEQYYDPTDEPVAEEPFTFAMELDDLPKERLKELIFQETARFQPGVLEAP", "experiment": "Inhibition of full length wild type human ERK1 (M1 to P379 residues) expressed in bacterial expression system assessed as residual activity at 2 uM by KINOMEscan assay"}, "[4]": {"biological_target": "Mitogen-activated protein kinase 8 (Homo sapiens) (UniProt P45983)", "sequence (P45983 whole entry, the tested form may be a part)": "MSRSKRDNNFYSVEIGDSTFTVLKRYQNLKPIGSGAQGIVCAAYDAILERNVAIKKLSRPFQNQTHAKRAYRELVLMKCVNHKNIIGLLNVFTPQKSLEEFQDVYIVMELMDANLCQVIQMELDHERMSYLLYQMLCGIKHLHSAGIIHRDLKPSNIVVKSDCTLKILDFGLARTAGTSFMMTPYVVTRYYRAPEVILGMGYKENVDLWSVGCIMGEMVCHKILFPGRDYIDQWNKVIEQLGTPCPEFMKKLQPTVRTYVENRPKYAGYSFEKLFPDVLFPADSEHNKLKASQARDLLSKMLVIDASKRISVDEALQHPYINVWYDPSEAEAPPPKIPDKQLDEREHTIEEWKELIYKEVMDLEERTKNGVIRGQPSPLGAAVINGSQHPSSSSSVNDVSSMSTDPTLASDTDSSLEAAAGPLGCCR", "experiment": "Inhibition of full length wild type human JNK1 (M1 to Q384 residues) expressed in mammalian expression system assessed as residual activity at 2 uM by KINOMEscan assay"}, "[5]": {"biological_target": "Mitogen-activated protein kinase 9 (Homo sapiens) (UniProt P45984)", "sequence (P45984 whole entry, looked up, the tested form may be a part)": "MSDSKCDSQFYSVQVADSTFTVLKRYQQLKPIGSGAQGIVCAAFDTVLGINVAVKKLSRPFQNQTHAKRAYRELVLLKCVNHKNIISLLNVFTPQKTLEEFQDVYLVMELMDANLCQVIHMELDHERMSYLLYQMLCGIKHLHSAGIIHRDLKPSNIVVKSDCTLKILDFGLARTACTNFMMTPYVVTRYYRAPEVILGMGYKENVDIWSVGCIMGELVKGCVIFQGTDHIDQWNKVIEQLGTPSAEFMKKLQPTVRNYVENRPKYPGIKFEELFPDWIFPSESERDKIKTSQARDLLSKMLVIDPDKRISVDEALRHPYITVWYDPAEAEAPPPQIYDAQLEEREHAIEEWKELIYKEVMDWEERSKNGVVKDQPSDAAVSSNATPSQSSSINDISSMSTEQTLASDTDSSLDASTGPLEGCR", "experiment": "Inhibition of full length wild type human JNK2 (M1 to Q382 residues) expressed in mammalian expression system assessed as residual activity at 2 uM by KINOMEscan assay"}, "[6]": {"biological_target": "Mitogen-activated protein kinase 10 (Homo sapiens) (UniProt P53779)", "sequence (P53779 whole entry, the tested form may be a part)": "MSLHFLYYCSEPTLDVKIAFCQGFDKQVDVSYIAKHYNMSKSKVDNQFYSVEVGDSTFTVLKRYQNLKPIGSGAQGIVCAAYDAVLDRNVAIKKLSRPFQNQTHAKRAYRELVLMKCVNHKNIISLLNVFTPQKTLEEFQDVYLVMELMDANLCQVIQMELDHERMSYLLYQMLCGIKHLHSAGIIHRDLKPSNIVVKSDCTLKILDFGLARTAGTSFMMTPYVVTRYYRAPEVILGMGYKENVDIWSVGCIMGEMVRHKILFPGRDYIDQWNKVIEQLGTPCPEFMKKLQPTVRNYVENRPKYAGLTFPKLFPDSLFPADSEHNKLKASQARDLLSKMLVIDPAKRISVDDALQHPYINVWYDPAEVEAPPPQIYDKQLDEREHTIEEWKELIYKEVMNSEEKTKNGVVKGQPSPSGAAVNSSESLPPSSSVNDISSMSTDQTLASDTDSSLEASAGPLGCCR", "experiment": "Inhibition of full length wild type human JNK3 (M1 to Q382 residues) expressed in mammalian expression system assessed as residual activity at 2 uM by KINOMEscan assay"}, "[7]": {"biological_target": "Mitogen-activated protein kinase 14 (Homo sapiens) (UniProt Q16539)", "sequence (Q16539 whole entry, the tested form may be a part)": "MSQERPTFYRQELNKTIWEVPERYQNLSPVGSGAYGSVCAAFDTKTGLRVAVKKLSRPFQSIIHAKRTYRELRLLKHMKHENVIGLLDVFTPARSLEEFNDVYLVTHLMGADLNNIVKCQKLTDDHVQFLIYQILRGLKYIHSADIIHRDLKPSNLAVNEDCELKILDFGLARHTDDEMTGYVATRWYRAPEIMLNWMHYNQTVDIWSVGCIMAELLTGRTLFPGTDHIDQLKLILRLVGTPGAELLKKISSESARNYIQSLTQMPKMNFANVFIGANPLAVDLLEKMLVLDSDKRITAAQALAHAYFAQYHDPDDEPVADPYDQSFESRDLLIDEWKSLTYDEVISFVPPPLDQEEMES", "experiment": "Inhibition of full length wild type human p38alpha (M1 to S360 residues) expressed in bacterial expression system assessed as residual activity at 2 uM by KINOMEscan assay"}, "[8]": {"biological_target": "Mitogen-activated protein kinase 11 (Homo sapiens) (UniProt Q15759)", "sequence (Q15759 whole entry, the tested form may be a part)": "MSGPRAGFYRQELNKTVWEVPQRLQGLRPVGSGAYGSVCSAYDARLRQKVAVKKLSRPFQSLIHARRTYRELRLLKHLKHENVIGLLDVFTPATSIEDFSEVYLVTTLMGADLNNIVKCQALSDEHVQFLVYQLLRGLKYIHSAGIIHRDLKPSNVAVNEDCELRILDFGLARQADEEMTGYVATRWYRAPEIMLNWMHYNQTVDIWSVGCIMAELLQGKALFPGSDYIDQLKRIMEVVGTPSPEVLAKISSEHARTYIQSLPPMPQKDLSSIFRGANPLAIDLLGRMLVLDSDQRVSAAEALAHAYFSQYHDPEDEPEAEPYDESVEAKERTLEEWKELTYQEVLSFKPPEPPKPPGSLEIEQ", "experiment": "Inhibition of full length wild type human p38beta (M1 to Q364 residues) expressed in bacterial expression system assessed as residual activity at 2 uM by KINOMEscan assay"}, "[9]": {"biological_target": "Glycogen synthase kinase-3 beta (Homo sapiens, UniProt P49841)", "sequence (P49841 whole entry, the tested form may be a part)": "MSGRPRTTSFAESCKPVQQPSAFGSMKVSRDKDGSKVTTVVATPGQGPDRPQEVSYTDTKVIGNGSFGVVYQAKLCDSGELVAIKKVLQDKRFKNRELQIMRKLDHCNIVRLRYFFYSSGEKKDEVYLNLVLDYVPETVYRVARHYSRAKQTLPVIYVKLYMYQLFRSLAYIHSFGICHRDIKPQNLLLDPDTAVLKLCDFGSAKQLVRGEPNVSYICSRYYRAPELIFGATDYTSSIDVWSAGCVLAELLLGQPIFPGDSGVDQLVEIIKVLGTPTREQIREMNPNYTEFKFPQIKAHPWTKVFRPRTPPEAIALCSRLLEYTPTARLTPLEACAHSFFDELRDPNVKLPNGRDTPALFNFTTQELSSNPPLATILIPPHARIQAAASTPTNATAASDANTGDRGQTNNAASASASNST", "experiment": "Binding affinity to full length wild type human GSK3beta (M1 to T433 residues) expressed in mammalian expression system by KINOMEscan assay"}, "Homo sapiens": {"species_on_record": "Homo sapiens", "experiment": "Selectivity ratio of compound affinity for C-terminal FLAG-tagged human ERK2 to C-terminal FLAG-tagged human p38 alpha"}}, "note": "Residues, ends and D or L forms follow the SMILES beside them. *: point of attachment. X1 = Nc1nn(CC(=O)*)c2nnc(-c3c(-c4ccccc4)nn4ccccc34)cc12; PEG4 = NCCOCCOCCOCCOCCC(=O)O"}
{"molecule": "H-EIIKLAPPPKKA-OH", "values": [{"measurement": "Kd", "setting": "[1]", "result": 18, "unit": "µM"}]}
{"molecule": "Nc1nn(CC(=O)O)c2nnc(-c3c(-c4ccccc4)nn4ccccc34)cc12", "values": [{"measurement": "IC50", "setting": "[2]", "result": 12.3, "unit": "µM"}]}
{"molecule": "CC[C@H](C)[C@H](NC(=O)[C@H](CCC(=O)O)NC(=O)CCOCCOCCOCCOCCNC(=O)Cn1nc(N)c2cc(-c3c(-c4ccccc4)nn4ccccc34)nnc21)C(=O)N[C@H](C(=O)N[C@@H](CCCCN)C(=O)N[C@@H](CC(C)C)C(=O)N[C@@H](C)C(=O)N1CCC[C@H]1C(=O)N1CCC[C@H]1C(=O)N1CCC[C@H]1C(=O)N[C@@H](CCCCN)C(=O)N[C@@H](CCCCN)C(=O)N[C@@H](C)C(=O)O)[C@@H](C)CC", "note": "({X1-PEG4}-EIIKLAPPPKKA-OH)", "values": [{"measurement": "IC50", "setting": "[2]", "result": 0.7, "unit": "µM"}]}
{"molecule": "CC[C@H](C)[C@H](NC(=O)[C@H](CO)NC(=O)[C@H](CO)NC(=O)[C@H](CCC(=O)O)NC(=O)[C@@H](NC(=O)[C@@H]1CCCN1C(=O)[C@H](CCCCN)NC(=O)[C@H](CC(C)C)NC(=O)[C@H](CCC(N)=O)NC(=O)[C@H](C)NC(=O)[C@@H](NC(=O)CNC(=O)C(N)CCCCn1cc(CCCCNC(=O)CCCCCn2nc(N)c3cc(-c4c(-c5ccccc5)nn5ccccc45)nnc32)nn1)[C@@H](C)O)[C@@H](C)CC)C(=O)N[C@@H](CC(C)C)C(=O)N[C@@H](C)C(=O)N[C@@H](CCC(N)=O)C(=O)N[C@@H](CCCNC(=N)N)C(=O)N[C@@H](CCCNC(=N)N)C(=O)N[C@H](C(=O)N[C@@H](CCCNC(=N)N)C(=O)N[C@@H](CCCCN)C(=O)O)C(C)C", "note": "(some centres not stated)", "values": [{"measurement": "Activity", "setting": "[3]", "result": 0.15, "unit": "%"}, {"measurement": "Activity", "setting": "[4]", "result": 0.1, "unit": "%"}, {"measurement": "Activity", "setting": "[5]", "result": 0.1, "unit": "%"}, {"measurement": "Activity", "setting": "[6]", "result": 0.1, "unit": "%"}, {"measurement": "Activity", "setting": "[7]", "result": 0.25, "unit": "%"}, {"measurement": "Activity", "setting": "[8]", "result": 11, "unit": "%"}, {"measurement": "Kd", "setting": "[9]", "result": "> 2.5", "unit": "µM"}]}
{"molecule": "CC[C@H](C)[C@H](NC(=O)[C@H](CO)NC(=O)[C@H](CO)NC(=O)[C@H](CCC(=O)O)NC(=O)[C@@H](NC(=O)[C@@H]1CCCN1C(=O)[C@H](CCCCN)NC(=O)[C@H](CC(C)C)NC(=O)[C@H](CCC(N)=O)NC(=O)[C@H](C)NC(=O)[C@@H](NC(=O)CCOCCOCCOCCOCCNC(=O)Cn1nc(N)c2cc(-c3c(-c4ccccc4)nn4ccccc34)nnc21)[C@@H](C)O)[C@@H](C)CC)C(=O)N[C@@H](CC(C)C)C(=O)N[C@@H](C)C(=O)N[C@@H](CCC(N)=O)C(=O)N[C@@H](CCCNC(=N)N)C(=O)N[C@@H](CCCNC(=N)N)C(=O)N[C@H](C(=O)N[C@@H](CCCNC(=N)N)C(=O)N[C@@H](CCCCN)C(=O)N[C@@H](CCCNC(=N)N)C(=O)N[C@@H](CCCCN)C(=O)N[C@@H](CCCCN)C(=O)N[C@@H](CCCNC(=N)N)C(=O)N[C@@H](CCCNC(=N)N)C(=O)N[C@@H](CCC(N)=O)C(=O)N[C@@H](CCCNC(=N)N)C(=O)N[C@@H](CCCNC(=N)N)C(=O)N[C@@H](CCCNC(=N)N)C(=O)O)C(C)C", "note": "({X1-PEG4}-TAQLKPIESSILAQRRVRKRKKRRQRRR-OH)", "values": [{"measurement": "IC50", "setting": "[2]", "result": 0.014, "unit": "µM"}]}
{"molecule": "H-PQLKPIESSILAQRRVRKLPSTTL-OH", "values": [{"measurement": "Selectivity ratio", "setting": "Homo sapiens", "result": 20}]}
